Test results from publication PMC9913705, “Novel Non-Cyclooxygenase Inhibitory Derivative of Sulindac Inhibits Breast Cancer Cell Growth In Vitro and Reduces Mammary Tumorigenesis in Rats” (Cancers, 2023).
Read-outs that look alike come from different tables or passages of the source.

Assays:
[1] = system: human breast cancer cell lines; settings: same cell lines and treatment conditions; read-out: IC50 for human breast cancer cell growth (range over cell lines); cited from earlier work
[2] = system: cGMP PDE in MDA-MB-231 whole cell lysate; experiment: cGMP hydrolysis in whole cell lysate, IMAP assay; assay type: biochemical, human; settings: 100 µM
Description: (§1) PDE activity was measured using the Molecular Devices (San Diego, CA, USA) IMAP fluorescence polarization assay as previously described. Recombinant PDE5 was purchased from BPS Biosciences (San Diego, CA, USA).

[3] = system: cGMP PDE in SKBr3 whole cell lysate; experiment: cGMP hydrolysis in whole cell lysate, IMAP assay; assay type: biochemical, human; settings: 100 µM
Description: as §1

[4] = Plasma levels after dietary feeding; assay type: in vivo, Sprague-Dawley rats; settings: diet containing 1000, 2000, or 3000 ppm
Hs578t cells = experiment: Tcf transcriptional activity, Super8XTOPFlash luciferase reporter; assay type: cell-based, human; settings: 24 h
Description: Tcf transcriptional activity was measured in Hs578t cells. Cells were seeded in 24-well tissue culture treated plates. After 24 h of incubation, cells were transiently transfected with 0.1 µg of Promega β-galactosidase-expressing vector and 0.1 µg of Super8XTOPFlash construct, which was kindly provided by Randall T. Moon from the University of Washington (Seattle, WA, USA). After 24 h of transfection, cells were treated with compound and incubated for an additional 24 h. Cells were lysed, and luciferase and β-galactosidase activities were measured using assay systems from Promega (Madison, WI, USA), following the manufacturer’s instructions. Luciferase activity was normalized to β-galactosidase activity.

[5] = system: human breast cancer cell lines; experiment: Growth inhibition, Cell Titer Glo, panel of human breast cancer cell lines; assay type: cell-based
Description: (§2) The human breast tumor cell lines Hs578t, MCF7, MDA-MB-231, SKBr3, and ZR75-1 were obtained from ATCC (Manassas, VA, USA) and grown in RPMI 1640 media containing L-glutamine, 5% fetal bovine serum, and penicillin/streptomycin at 37 °C in a humidified atmosphere with 5% CO2.
(§3) Growth inhibition was measured using the Promega (Madison, WI, USA) Cell Titer Glo Assay following manufacturer’s specifications. First, 96-well tissue culture treated microtiter plates were seeded at a density of 5000 cells per well and incubated at 37 °C for 24 h prior to drug treatment. After treatment, plates were incubated 72 h prior to assay.

[6] = system: MDA-MB-231 breast tumor cells; experiment: 3D HuBiogel mini-tumor growth, calcein-AM live imaging; assay type: cell-based, human; settings: MDA-MB-231, calcein AM live imaging
Description: Viable mini-tumors (1 mm in size) of MDA-MB-231 breast tumor cells were generated using the three-dimensional human Biogel culture system from Vivo Biosciences (Birmingham, AL, USA). Accordingly, 20,000 cells were mixed with HuBiogel beads and cultivated in rotary bioreactors for 3 days. Live cell imaging was performed using Calcein- acetoxymethyl (calcein-AM) staining.

purified ovine COX-1 = molecular target: T1, purified ovine COX-1 (Ovis aries, UniProt P05979); experiment: COX-1 colorimetric activity assay (Cayman kit); assay type: biochemical
T1 construct: purchased Cayman Chemical Company
T1 sequence (P05979 25-600): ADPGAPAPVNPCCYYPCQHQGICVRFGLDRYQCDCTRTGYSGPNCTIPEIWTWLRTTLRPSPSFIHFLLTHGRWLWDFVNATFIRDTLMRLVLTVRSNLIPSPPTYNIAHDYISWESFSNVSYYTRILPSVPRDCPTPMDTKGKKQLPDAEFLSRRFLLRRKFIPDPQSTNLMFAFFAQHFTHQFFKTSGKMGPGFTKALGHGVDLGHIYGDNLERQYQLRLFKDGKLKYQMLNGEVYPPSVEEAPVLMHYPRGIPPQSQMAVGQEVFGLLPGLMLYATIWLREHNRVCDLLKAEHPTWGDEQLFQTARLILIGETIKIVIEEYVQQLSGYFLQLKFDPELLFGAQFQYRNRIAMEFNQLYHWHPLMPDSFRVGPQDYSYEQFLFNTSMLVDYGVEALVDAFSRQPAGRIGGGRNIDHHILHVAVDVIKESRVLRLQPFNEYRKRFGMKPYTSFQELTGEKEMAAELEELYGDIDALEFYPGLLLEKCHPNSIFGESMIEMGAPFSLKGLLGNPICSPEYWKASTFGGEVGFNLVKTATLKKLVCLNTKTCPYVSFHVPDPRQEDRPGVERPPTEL
Description: (§4) COX-1 and COX-2 activities were measured using purified ovine COX-1 and COX-2 with colorimetric assay kits obtained from Cayman Chemical Company (Ann Arbor, MI, USA) according to the manufacturer’s protocol. After the addition of arachidonic acid and incubation at 25 °C for 5 min, COX activity was determined by measuring absorbance at 590 nm.

[7] = system: Hs578t, MDA-MB-231, SKBr3, and ZR75-1 cells; experiment: Caspase 3/7 Glo assay; assay type: cell-based, human; settings: 6 h treatment; range over Hs578t, MDA-MB-231, SKBr3, ZR75-1
Description: (§5) Caspase activation was measured using Promega’s Caspase 3/7 Glo Assay following the manufacturer’s specifications. First, 96-well tissue culture treated microtiter plates were seeded at a density of 10,000 cells per well and incubated at 37 °C for 24 h prior to drug treatment. After treatment, plates were incubated 6 h prior to assay.

MCF7 cells = experiment: Caspase 3/7 Glo assay; assay type: cell-based, human; settings: MCF7, 6 h treatment
Description: as §5

[8] = system: MNU-induced mammary tumors; experiment: MNU model of mammary carcinogenesis; assay type: in vivo; settings: for reduction in tumor incidence compared to vehicle control / reduction in tumor multiplicity compared to vehicle control: 126 days after MNU
Description: In vivo efficacy was evaluated using the N-methyl-N-nitrosourea (MNU) model of mammary carcinogenesis, as previously described. Briefly, female Sprague-Dawley rats were obtained from Envigo (formerly Harlan Sprague-Dawley, Inc.) (Indianapolis, IN, USA) at 28 days of age and placed on a Teklad 4% fat diet on the day of arrival. Within one week of arrival, rats were randomly assigned to groups (15 rats/group), ear marked for identification, and weighed to ensure statistically similar average body weights per group. At 50 days of age, rats received one IV injection of MNU (75 mg/kg) via the jugular vein. Rats were administered 800 or 1200 ppm of SSA or vehicle control in diet beginning 3 days after MNU administration. Rats were weighed once per week, palpated for mammary tumors twice per week, and checked daily for signs of toxicity. The study was terminated at 126 days after MNU administration. All mammary tumors were weighed when removed at necropsy, weighed, and processed for histological classification and analysis. The protocol used for this study was approved by the University of Alabama at Birmingham (UAB) IACUC where the study was performed.

purified ovine COX-2 = molecular target: T2, purified ovine COX-2 (Ovis aries, UniProt P79208); experiment: COX-2 colorimetric activity assay (Cayman kit); assay type: biochemical; settings: purified enzyme
T2 construct: purchased Cayman Chemical Company
T2 sequence (P79208 17-603): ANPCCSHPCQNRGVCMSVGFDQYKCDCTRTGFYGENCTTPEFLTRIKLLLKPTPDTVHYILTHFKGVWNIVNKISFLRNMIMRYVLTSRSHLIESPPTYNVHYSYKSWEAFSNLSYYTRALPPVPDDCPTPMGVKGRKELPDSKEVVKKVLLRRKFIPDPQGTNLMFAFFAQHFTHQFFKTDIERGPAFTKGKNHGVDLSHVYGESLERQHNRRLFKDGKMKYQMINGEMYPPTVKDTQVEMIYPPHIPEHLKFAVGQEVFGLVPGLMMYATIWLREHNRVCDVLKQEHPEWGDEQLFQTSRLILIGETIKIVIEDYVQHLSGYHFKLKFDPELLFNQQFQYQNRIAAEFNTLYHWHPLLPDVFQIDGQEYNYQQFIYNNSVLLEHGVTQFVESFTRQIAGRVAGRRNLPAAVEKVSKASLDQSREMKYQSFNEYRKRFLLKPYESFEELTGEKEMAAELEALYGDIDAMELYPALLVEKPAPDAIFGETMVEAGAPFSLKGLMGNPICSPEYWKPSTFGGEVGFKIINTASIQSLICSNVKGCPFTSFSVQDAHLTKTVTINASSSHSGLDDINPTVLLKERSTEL
Description: as §4

[9] = system: MDA-MB-231 breast cancer cells; experiment: Western blotting of phospho-VASP Ser239, cyclin D1, survivin; assay type: cell-based, human; settings: 7.5 µM
Description: All antibodies were obtained from Cell Signaling Technologies (Danvers, MA, USA). Cells were harvested and vortexed in ice cold lysis buffer containing 20 mM tris acetate, 5mM magnesium acetate, 1 mM ethylene glycol-bis(β-aminoethyl ether)-N,N,N′,N′-tetraacetic acid (EGTA), 0.8% Triton X-100, 50 mM sodium fluoride, 1.25 mM sodium vanadate, and protease inhibitor cocktail at pH 7.4. Lysates were centrifuged at 10,000× g for 10 min at 4 °C. Protein contents were determined using the Thermo/Pierce (Waltham, MA, USA) bicinchoninic acid (BCA) protein assay following the manufacturer’s specifications.
Proteins (15 µg) from lysed cells were separated by sodium dodecyl sulfate polyacrylamide gel electrophoresis (SDS-PAGE) in a 12% polyacrylamide gel followed by electrophoretic transfer to a nitrocellulose membrane. The membranes were blocked with 5% nonfat dry milk in tris-buffered saline (TBS) containing 0.05% Tween-20. Membranes were incubated with primary antibody at 4 °C overnight followed by incubation with secondary antibody conjugated to horseradish peroxidase for 2 h at room temperature. Protein bands were visualized using Millipore Immobilon enhanced chemiluminescence (ECL) substrate on HyBlot CL autoradiography film.

recombinant PDE5 = molecular target: T3, recombinant PDE5 (Homo sapiens, UniProt O76074); experiment: PDE activity, IMAP fluorescence polarization assay; assay type: biochemical
T3 construct: purchased BPS Biosciences
Description: as §1

SKBr3 cells = experiment: APO-BrdU TUNEL assay (DNA fragmentation), flow cytometry; assay type: cell-based, human; settings: 24 h
Description: A terminal deoxynucleotidyl transferase dUTP nick end labeling (TUNEL) assay was performed in SKBr3 cells using the Invitrogen APO-BrdU TUNEL Assay (Waltham, MA, USA) according to the manufacturer’s protocol, and fluorescence was measured using a Guava EasyCyte (Hayward, CA, USA) flow cytometry system. First, 10 cm tissue culture treated dishes were seeded at a density of 2,000,000 cells per dish and incubated at […] for 24 h prior to drug treatment. After treatment, cells were incubated for 24 h and then collected and fixed with 4% paraformaldehyde for 15 min on ice, washed with phosphate buffered saline (PBS), and incubated in 70% ethanol at −20 °C for 4–24 h prior to assay.

MDA-MB-231 cells = experiment: Intracellular cGMP levels; assay type: cell-based, human; settings: intact MDA-MB-231, 30 min, concentrations comparable with growth IC50
Description: Intracellular levels of cGMP were measured in MDA-MB-231 cells after 30 min of drug treatment, as previously described.

SKBr3 = experiment: Growth inhibition, Cell Titer Glo; assay type: cell-based; settings: Homo sapiens, SK-BR-3; SKBr3, 72 h, 2D
Description: as §2, §3

MCF7 = experiment: Growth inhibition, Cell Titer Glo; assay type: cell-based; settings: Homo sapiens; MCF7, 72 h, 2D
Description: as §2, §3

ZR75-1 = experiment: Growth inhibition, Cell Titer Glo; assay type: cell-based; settings: Homo sapiens, ZR-75-1; ZR75-1, 72 h, 2D
Description: as §2, §3

Hs578t = experiment: Growth inhibition, Cell Titer Glo; assay type: cell-based; settings: Homo sapiens, Hs-578T, 72 h, 2D
Description: as §2, §3

MDA-MB-231 = experiment: Growth inhibition, Cell Titer Glo; assay type: cell-based; settings: Homo sapiens; MDA-MB-231, 72 h, 2D
Description: as §2, §3

CSc1ccc(/C=C2/C(C)=C(CC(=O)O)c3cc(F)ccc32)cc1 [SS, sulindac sulfide]
IC50 [1]: 58.8 to 83.7 µM

CSc1ccc(/C=C2/C(C)=C(CC(=O)NCCN(C)C)c3cc(F)ccc32)cc1 [SSA, sulindac sulfide amide]
inhibition of cGMP hydrolysis [2]: 38% | inhibition of cGMP hydrolysis [3]: 65% | plasma levels [4]: exceed the concentrations necessary for SSA to activate cGMP signaling and inhibit growth in breast cancer cells in vitro | reduction of Tcf transcriptional activity (Hs578t cells; 5 µM): 14% | reduction of Tcf transcriptional activity (Hs578t cells; 20 µM): 60% | IC50 ([5]; Homo sapiens, 72 h treatment, 2D growth, read-out: IC50 for human breast cancer cell growth (range over cell lines)): 3.9 to 7.1 µM | fold more potent than SS in inhibiting growth and inducing apoptosis in breast cancer cells ([5]; vs SS): 10 fold | cell growth in 3D HuBiogel [6]: markedly reduced | IC50 (purified ovine COX-1; purified enzyme): 81.6 µM | fold less potent than sulindac sulfide (SS) in inhibiting COX-1 (purified ovine COX-1; vs SS): 68 fold | increase in activity of caspases 3 and 7 [7]: 2 to 6 fold | caspase activation (MCF7 cells): no increase | change in body weight ([8]; 800 and 1200 ppm in diet, 126-day study): Neither dose of SSA resulted in a significant change | reduction in tumor incidence compared to vehicle control ([8]; 800 ppm in diet): 22% | reduction in tumor multiplicity compared to vehicle control ([8]; 800 ppm in diet): 31% | reduction in tumor incidence compared to vehicle control ([8]; 1200 ppm in diet): 43% | reduction in tumor multiplicity compared to vehicle control ([8]; 1200 ppm in diet): 62% | reduction in the incidence of tumors ([8]; abstract, dose not stated): 57% | reduction in the multiplicity of tumors ([8]; abstract, dose not stated): 62% | toxicity observed in rats ([8]; long-term dietary treatment): no discernable toxicity | IC50 (purified ovine COX-2): > 200 µM | VASP phosphorylation at serine 239 (PKG activity marker) ([9]; MDA-MB-231): significantly increased | time of peak VASP phosphorylation ([9]; MDA-MB-231): 1 h | cyclin D1 protein levels ([9]; after 1 h): decreased appreciably | survivin protein levels ([9]; after 7 h): decreased appreciably | inhibition at 25 µM (recombinant PDE5): 55% | TUNEL Positive (SKBr3 cells; 10 μM): 2% | TUNEL Positive (SKBr3 cells; 25 μM): 59% | TUNEL Positive (SKBr3 cells; 50 μM): 86% | intracellular cGMP levels (MDA-MB-231 cells): increased intracellular cGMP levels | IC50 (SKBr3): 3.9 µM | IC50 (MCF7): 7 µM | IC50 (ZR75-1): 7.1 µM | IC50 (Hs578t): 7 µM | IC50 (MDA-MB-231): 6.5 µM
